Series [1] deals with T1, human neutrophil derived cathepsin G (Homo sapiens, UniProt P08311).
T1 sequence (P08311 21-244 limits assumed): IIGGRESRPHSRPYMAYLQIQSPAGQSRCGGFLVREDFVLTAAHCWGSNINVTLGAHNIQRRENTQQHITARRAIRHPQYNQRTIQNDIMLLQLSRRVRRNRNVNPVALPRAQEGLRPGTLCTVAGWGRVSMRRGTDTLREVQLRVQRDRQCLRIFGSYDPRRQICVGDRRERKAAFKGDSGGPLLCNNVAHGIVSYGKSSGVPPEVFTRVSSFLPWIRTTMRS
Description: Measurement of cathepsin G inhibitive activity (conversion of Ang I to Ang II, HPLC). The format is biochemical. The settings on record: Ang I substrate, 37° C., 30 min, pH 7.5.

The target in series [2] is T2, human heart chymase (Homo sapiens, UniProt P23946).
T2 sequence (P23946 22-247): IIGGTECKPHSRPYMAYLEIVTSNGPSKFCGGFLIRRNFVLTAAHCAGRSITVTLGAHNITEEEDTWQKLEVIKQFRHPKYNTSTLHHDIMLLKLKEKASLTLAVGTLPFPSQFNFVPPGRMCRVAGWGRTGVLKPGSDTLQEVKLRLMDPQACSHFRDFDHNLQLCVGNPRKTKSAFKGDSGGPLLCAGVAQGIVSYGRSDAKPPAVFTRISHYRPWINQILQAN
The series can be described thus: biochemical. The settings on record: Chymase inhibitive activity (IC50), Ang I substrate, 37° C., 30 min, pH 7.5.
Description: (§1) That is, to 10 μl of a 20 mM trisphosphate buffer (pH 7.5) containing 2MKCl were added 10 μl of purified chymase and 5 μl of a dimethylsulfoxide (hereinafter referred to as DMSO) solution of the test sample. The mixture was preincubated at 37° C. for 10 minutes, then 25 μl of a 1 mM Ang I solution was added and the mixture preincubated at 37° C. for 30 minutes. Next, 50 μl of 30% acetic acid was added to stop the enzymatic reaction. At the same time, a blind test was performed by adding, instead of the test sample solution, 5 μl of DMSO and performing the same reaction.
(§2) The reacted solution was subjected to high performance liquid chromatography using Develosil ODS-5 (made by Nomura Kagaku, .phi.4.6 mm×150 mm) and developed at a flow rate of 2.0 ml/min in 0.05% TFA by a straight concentration gradient raising the acetonitrile from 0% to 60% over 10 minutes. This was monitored by the absorbance at 210 nm and the peaks identified by comparison with standard samples of Ang I and Ang II. The peak areas were measured by an integrating meter to quantitatively analyze the Ang I and Ang II and calculate the chymase activity.

The target of series [3] is T3, bovine pancreatic α-chymotrypsin (Bos taurus, UniProt P00766).
T3 construct: purchased Sigma Co. Type II; host or cells: bovine pancreas
Description: Measurement of chymotrypsin inhibitive activity (Ang I, HPLC). The settings on record: for IC50: bovine pancreatic α-chymotrypsin, Ang I substrate, 37° C., 15 min, pH 7.5; for inhibition at 100 µM: percent inhibition at 100 μM. It counts as biochemical.

Series [4] deals with T2, human heart chymase. The settings on record: read-out: Chymase inhibitive activity (IC50), Ang I substrate, 37° C., 30 min, pH 7.5.
Description: as §1, §2
The nature of another series: in vivo. The conditions noted are these: mouse, po.
For series [5], the system named is vascular restenosis after the operation of PTCA. The settings on record: random multifacility clinical study, Europe, placebo control; cited from earlier work.

Data on 31 compounds can be found in US5814631A, “Quinazoline derivatives and applications thereof” (Suntory Limited, priority 1995, dated 1998).

The IC50 is the concentration that inhibits the measured activity by half. By LD50 is commonly meant the dose expected to kill half of the subjects tested. A high value points to a less toxic substance. What is called inhibition is the relative decrease from the control value, in per cent. Higher therefore signals a response far below the control.

Read-outs that look alike come from different tables or passages of the source. A value given as a limit tells only on which side of the number the result lay.

As for `O=C(O)c1ccc(S(=O)(=O)n2c(=O)[nH]c3cc(Cl)ccc3c2=O)cc1`, the values for the IC50 (in series [1]; at human heart chymase [2]; in series [3]) were 580 nM, 3100 nM and 25000 nM, respectively.

Regarding “3(4-chlorobenzenesulfonyl)-1-phenethyl-2,4(1H,3H)-quinazolinedione [Example 129]”, at human heart chymase [4], the IC50 was determined as 3200 nM.

Consider `O=c1[nH]c2cc(Cl)ccc2c(=O)n1S(=O)(=O)c1ccc(Cl)cc1` [Example 1, 7-chloro-3-(-4-chlorobenzenesulfonyl)-2,4(1H,3H)-quinazolinedione], for which, in “in vivo”, the LD50 at 24 h is ≥ 1000 mg/kg. For the same compound, the values for the half-inhibitory concentration (IC50) in series [1] and in series [3] were 520 nM and 1500 nM, respectively.

For the compound `Cc1cccc2[nH]c(=O)n(S(=O)(=O)c3ccc(Cl)cc3)c(=O)c12` [Example 2, 3-(4-chlorobenzenesulfonyl)-5-methyl-2,4(1H,3H)-quinazolinedione], in “in vivo”, the LD50 at 24 h is ≥ 1000 mg/kg and the selectivity ratio at 24 h is ≥ 50.

On to `Cc1ccc2[nH]c(=O)n(S(=O)(=O)c3ccc(Cl)cc3)c(=O)c2c1` [Example 3], for which the IC50 in series [1] amounted to 64400 nM; on human heart chymase [2], 3900 nM; in series [3] it was 3500 nM.

Turning to `C=CCOC(=O)c1ccc(S(=O)(=O)n2c(=O)[nH]c3cc(Cl)ccc3c2=O)cc1` [Example 5, 3-(4-allyloxycarbonylbenzenesulfonyl)-7-chloro-2,4(1H,3H)-quinazolinedione], the IC50 in series [1] was determined as 340 nM; in series [3] it was 2000 nM.

In the case of `COc1cccc2c(=O)n(S(=O)(=O)c3ccc(Cl)cc3)c(=O)[nH]c12` [Example 7, 3-(4-chlorobenzenesulfonyl)-8-methoxy-2,4(1H,3H)-quinazolinedione], the 50% inhibitory concentration (IC50) in series [1] was 3200 nM; against human heart chymase [2], 23000 nM; in series [3], 1900 nM.

As to `Cc1ccc(S(=O)(=O)n2c(=O)[nH]c3cc(Cl)ccc3c2=O)cc1C` [Example 9, 7-chloro-3-(3,4-dimethylbenzenesulfonyl)-2,4(1H,3H)-quinazolinedione], the half-maximal inhibitory concentration (IC50) in series [1] came out at 480 nM; at human heart chymase [2] it was 1600 nM; in series [3] it was 2500 nM.

In the case of `O=c1[nH]c2cc(Cl)ccc2c(=O)n1S(=O)(=O)c1ccccc1` [Example 11, 7-chloro-3-benzenesulfonyl-2,4 3(1H,3H)-quinazolinedione], the IC50 in series [1] came out at 250 nM; against human heart chymase [2], 730 nM; in series [3], 3000 nM.

For the compound `O=c1[nH]c2cc(Cl)ccc2c(=O)n1S(=O)(=O)c1ccc([N+](=O)[O-])cc1` [Example 13, 7-chloro-3-(4-nitrobenzenesulfonyl)-2,4(1H,3H)-quinazolinedione], the IC50 in series [1] was determined as 34 nM; against human heart chymase [2], 850 nM; in series [3] it was 240 nM.

Consider `O=C(O)c1cccc(S(=O)(=O)n2c(=O)[nH]c3cc(Cl)ccc3c2=O)c1` [Example 15, 3-(3-carboxybenzenesulfonyl)-7-chloro-2,4(1H,3H)-quinazolinedione], for which the half-maximal inhibitory concentration (IC50) in series [1] worked out at 790 nM; against human heart chymase [2] it was 2400 nM; in series [3], 4800 nM.

Consider `COC(=O)c1ccc(S(=O)(=O)n2c(=O)[nH]c3cc(Cl)ccc3c2=O)cc1` [Example 19, 7-chloro-3-(4-methoxycarbonylbenzenesulfonyl)-2,4(1H,3H)-quinazolinedione], for which the IC50 in series [1] came to 160 nM; against human heart chymase [2], 200 nM; in series [3] it was 400 nM.

As for `Cc1cc2[nH]c(=O)n(S(=O)(=O)c3ccc(Cl)cc3)c(=O)c2cc1C` [Example 21, 3-(4-chlorobenzenesulfonyl)-6,7-dimethyl-2,4(1H,3H)-quinazolinedione], the IC50 in series [1] stood at 37000 nM; on human heart chymase [2], 30000 nM; in series [3], 8500 nM.

For the compound `O=c1[nH]c2ccccc2c(=O)n1S(=O)(=O)c1ccc(Cl)cc1` [Example 23, 3-(4-chlorobenzenesulfonyl)-2,4(1H,3H)-quinazolinedione], the half-maximal inhibitory concentration (IC50) in series [1] amounted to 3800 nM; against human heart chymase [2] it was 1600 nM; in series [3], 12000 nM.

On to `CC(C)(C)OC(=O)Cn1c(=O)n(S(=O)(=O)c2ccc(Cl)cc2)c(=O)c2ccc(Cl)cc21` [Example 25, 1-t-butoxycarbonylmethyl-7-chloro-3-(4-chlorobenzenesulfonyl)-2,4(1H,3H)-quinazolinedione], for which the IC50 turned out to be 37000 nM in series [1] and 6300 nM at human heart chymase [2]. Also, the inhibition at 100 µM in series [3] was found to be 34.5%.

For `Cn1c(=O)n(S(=O)(=O)c2ccc(Cl)cc2)c(=O)c2ccc(Cl)cc21` [Example 27, 7-chloro-3-(4-chlorobenzenesulfonyl)-1-methyl-2,4(1H,3H)-quinazolinedione], the IC50 in series [1] amounted to 16000 nM; at human heart chymase [2], 7000 nM. The same compound came in with an inhibition at 100 µM in series [3] of 27%.

With `O=C(O)Cn1c(=O)n(S(=O)(=O)c2ccc(Cl)cc2)c(=O)c2ccc(Cl)cc21` [Example 29, 1-carboxymethyl-7-chloro-3-(4-chlorobenzenesulfonyl)-2,4(1H,3H)-quinazolinedione], the IC50 in series [1] turned out to be 14000 nM; on human heart chymase [2], 3300 nM. The same compound displayed an inhibition at 100 µM in series [3] of 46.5%.

As for `O=c1[nH]c2cc(F)ccc2c(=O)n1S(=O)(=O)c1ccc(Cl)cc1` [Example 31, 3-(4-chlorobenzenesulfonyl)-7-fluoro-2,4(1H,3H)-quinazolinedione], the concentration for half-maximal inhibition (IC50) was 1100 nM in series [1], 1700 nM against human heart chymase [2] and 5700 nM in series [3].

In the case of `O=c1[nH]c2ccc(F)cc2c(=O)n1S(=O)(=O)c1ccc(Cl)cc1` [Example 33, 3-(4-chlorobenzenesulfonyl)-6-fluoro-2,4(1H,3H)-quinazolinedione], the half-inhibitory concentration (IC50) in series [1] worked out at 3600 nM; against human heart chymase [2], 1900 nM; in series [3], 4600 nM.

For the compound `O=c1[nH]c2cc3ccccc3cc2c(=O)n1S(=O)(=O)c1ccc(Cl)cc1` [Example 35, 3-(4chlorobenzenesulfonyl)-2,4(1H,3H)-benzo[g]quinazolinedione], the IC50 is 2400 nM on human heart chymase [2] and 1400 nM in series [3].

For the compound `Cc1ccc(S(=O)(=O)n2c(=O)[nH]c3cc(Cl)ccc3c2=O)cc1` [Example 37, 7-chloro-3-(4-toluenesulfonyl)-2,4(1H,3H)-quinazolinedione], the half-maximal inhibitory concentration (IC50) is 1200 nM in series [1], 1300 nM against human heart chymase [2] and 6100 nM in series [3].

In the case of `Nc1ncc(NC(=O)Cn2c(=O)n(S(=O)(=O)c3ccc(Cl)cc3)c(=O)c3ccc(Cl)cc32)cn1` [Example 87, [7-chloro-3-(4-chlorobenzenesulfonyl)-2,4(1H,3H)-quinazolinedion-1-yl]-N-(4-(2-aminopyrimidinyl))acetamide], the IC50 at human heart chymase [4] is 130 nM.

Consider `O=C(Cn1c(=O)n(S(=O)(=O)c2ccc(Cl)cc2)c(=O)c2ccc(Cl)cc21)Nc1cc[nH]c(=O)n1` [Example 88, [7-chloro-3-(4-chlorobenzenesulfonyl)-2,4(1H,3H)-quinazolinedion-1-yl]-N-cytosinacetamide], for which the IC50 at human heart chymase [4] is 200 nM.

In the case of `O=c1[nH]c2cc(Cl)ccc2c(=O)n1S(=O)(=O)c1ccc[nH]1` [Example 125, 7-chloro-3-(pyrrole-2-sulfonyl)-2,4(1H,3H)-quinazolinedione], the IC50 against human heart chymase [2] came to 29000 nM.

At human heart chymase [2], `O=c1[nH]c2cc(Cl)ccc2c(=O)n1S(=O)(=O)c1ccc(Cl)cc1F` [Example 134, 7-chloro-3-(4-chloro-2-fluorobenzenesulfonyl)-2,4(1H,3H)-quinazolinedione] displayed a half-inhibitory concentration (IC50) of 1800 nM.

`O=c1[nH]c2cc(Cl)ccc2c(=O)n1S(=O)(=O)c1ccc(C(F)(F)F)cc1` [Example 136, 7-chloro-3-(4-trifluoromethylbenzenesulfonyl)-2,4(1H,3H)-quinazolinedione] returned a 50% inhibitory concentration (IC50) against human heart chymase [2] of 460 nM.

`O=C(Cn1c(=O)n(S(=O)(=O)c2ccc(Cl)cc2)c(=O)c2ccc(Cl)cc21)Nc1ccc(Cl)cc1` [Example 140, [7-chloro-3-(4-chlorobenzenesulfonyl)-2,4(1H,3H)-quinazolinedion-1-yl]-N-(4-chlorophenyl)acetamide] had an IC50 on human heart chymase [2] of 60 nM.

`O=c1[nH]c2cc(Cl)ccc2c(=O)n1S(=O)(=O)c1ccc(OCCBr)cc1` [Example 145, 7-chloro-3-[4-(2-bromoethyloxy)benzenesulfonyl]-2,4(1H,3H)-quinazolinedione] returned an IC50 on human heart chymase [2] of 1500 nM.

Consider `CC(=O)c1ccc(S(=O)(=O)n2c(=O)[nH]c3cc(Cl)ccc3c2=O)cc1` [Example 149, 3-(4-acetylbenzenesulfonyl)-7-chloro-2,4(1H,3H)-quinazolinedione], for which, at human heart chymase [2], the half-maximal inhibitory concentration (IC50) turned out to be 570 nM.

`O=c1[nH]c2cc(O)ccc2c(=O)n1S(=O)(=O)c1ccc(Cl)cc1` [Example 151] came in with a concentration for half-maximal inhibition (IC50) against human heart chymase [2] of 2800 nM.

`CCOC(=O)[C@H](CCc1ccccc1)N[C@H]1CCCN2CCC[C@@H](C(=O)O)N2C1=O` [cilazapril]: the “prophylactic effect on vascular restenosis after PTCA versus placebo” value in series [5] was “no statistically significant difference”.
